“And” between values parts separate entries of the source, which are not always exact repeats. Identical values can stand only once. “Also recorded” adds a separate entry of the source. Like-named read-outs stand apart in the source and are kept apart here.

One data set has as its system RH T. gondii. Briefly: Plaque assay and IC50 determination. It is filed as cell-based, Toxoplasma gondii. The settings on record: plaque assay, 5 days; for inhibition of T. gondii growth in vitro: 0–40 µM. How it is done:
We measured the inhibition of parasite growth by plaque assay as modified from a previously established method ([27], [28]). Confluent monolayers of HFF in six-well plates were inoculated with 1 × 10^2 parasites of RH T. gondii. Immediately after, each well received D10 containing specified concentrations of each compound. Plates were incubated undisturbed for 5 days at 37°C in a humidified incubator with 5% CO2. On the fifth day, each well was rinsed once with phosphate-buffered saline (PBS), fixed with 4% paraformaldehyde (15 min at room temperature), and stained with crystal violet for 2–3 min. Plaques (visualized as irregular clear areas of cell lysis against the violet background of intact host cells) were enumerated for each well. To generate the inhibition curve, plaque numbers (represented as a percentage of plaques relative to the no drug control) were plotted vs drug concentration. The IC50 value was calculated from the inhibitor vs normalized response curve with variable slope. The results represented the average of three independent IC50 assays ± standard error of the mean.

In another data set the test system is HFF host cells. As to the kind of experiment: Host cell viability and TD50 determination. It is filed as cell-based, human. The settings on record: 5 days incubation, tetrazolium assay. The procedure: Confluent monolayers of HFF host cells (approximately 1 × 10^4) plated in clear bottom 96-well plates were treated with twofold dilutions of compounds of interest. After 5 days of incubation, 15 µL of dye solution (tetrazolium salt) was added to each well. The plates were incubated at 37°C for 4 hours; then, the reaction was stopped to solubilize the formazan product (Cell Titer 96 Nonradioactive Cell Proliferation Assay Promega). Absorbance at 570 ʎ (A570) was recorded using a multimode microplate plate reader (Molecular Devices Spectramax i5, SoftMax Pro 7.0.2 Software). The A570 absorbance reading is directly proportional to the number of viable cells. The values are presented as percentages of cell viability relative to the untreated controls (defined as 100% survival) and plotted against the log of compound concentrations. The log (auranofin derivative) vs cell viability curve with variable slope was generated to calculate TD50 values.

Data set [1] has as its system YFP+ RH parasites (T. gondii) in HFF. Briefly: Replication assay. It is filed as cell-based, Toxoplasma gondii. How it is done:
Confluent HFF monolayers were infected with 5 × 10^5 YFP+ RH parasites in coverslips. Following 1-hour incubation at 37°C to allow for invasion, the monolayer was rinsed with PBS, and D10 in DMSO (control) or auranofin containing (2.5 µM) media was added back. Coverslips were then incubated for 24 hours to allow for parasite replication. Coverslips were then fixed in 4% paraformaldehyde and mounted with DAPI-containing mounting media. Parasites were identified as DAPI+/YFP+ under fluorescence microscopy. The number of parasites per parasitophorous vacuole was counted across 10 random fields of view per coverslip. At least 100 parasitophorous vacuoles (PV) per condition were counted from three independent experiments. Results were grouped into the following categories according to the number of parasites per PV: 1, 2, 4, and >4 parasites. A chi-square trend test was used to determine the statistical difference between the PV category of the control and auranofin treatment from three independent experiments.

The subject of data set [2] is extracellular T. gondii RH parasites. As to the kind of experiment: Annexin V assay (phosphatidylserine externalization). Format: cell-based, Toxoplasma gondii. The conditions noted are these: auranofin 2.5 µM, 24 hours; control 11.2 ± 2.937. How it is done: (§1) A confluent monolayer of HFF was infected with purified RH parasites (freshly mechanically released by needle and filtered through a 3 µm filter). The monolayer remained undisturbed for 24 hours to allow for invasion and replication. On the day of treatment, extracellular parasites were mechanically released and harvested after differential centrifugation ([35]) at 35 × g for 5 minutes to prevent parasite loss before processing. The supernatant was then collected and centrifuged at 1,350 × g for 10 minutes to pellet the extracellular parasites. Parasites were plated in a 12-well plate (2.7 × 10^7 per well) into 1 mL of D10 in DMSO (control) or auranofin (2.5 µM) containing media and incubated for 24–48 hours at 37°C with 5% CO2 before collection.
Given the smaller size of parasites after auranofin treatment, we evaluated whether T. gondii death occurred by apoptosis via Annexin V assays (Invitrogen). After 24 hours of treatment, parasites were collected, washed with PBS, and resuspended in Annexin binding buffer (10 mM HEPES, 140 mM NaCl, and 2.5 mM CaCl2, pH 7.4) at a concentration of 10^6 parasites per mL. One hundred microliters of this parasite suspension was stained with Annexin V-Alexa fluor conjugate before flow cytometry analysis. A t-test was used to determine the statistical difference between control or auranofin treatment groups from three independent experiments.

For data set [3] the test system is unchanged. Briefly: Parasite size by flow cytometry (forward scatter). Format: cell-based, Toxoplasma gondii. The conditions noted are these: auranofin 2.5 µM. The procedure: as §1
Parasite size after treatment with auranofin was determined by flow cytometry (forward scattering). At the end of each incubation time, parasites (1 × 10^5) were resuspended in 1 mL of PBS to prepare them for flow cytometry.

The test system of the next data set is T. gondii in HFF. As to the kind of experiment: Egress assay (LDH release). The conditions noted are these: 30 hours infection, then 40 min with A23187 5 µM, zaprinast 57 µM or auranofin 5 µM. Format: cell-based, Toxoplasma gondii. How it is done: The egress assay was modified from previously published methods to measure lactate dehydrogenase (LDH) content as a function of egress (host membrane damage induced by parasite egress) ([33], [34]). Confluent monolayers of HFF in a 24-well plate were inoculated with 5 × 10^5 parasites (freshly mechanically released by needle and filtered through a 3 µm filter) for 30 hours before each drug treatment in three technical triplicates. These infected HFF monolayers were rinsed with 37°C Ringer’s solution (Ward’s Science) three times and supplied with 5 µM calcium ionophore A23187 (ACROS), 57 µM Zaprinast (Alfa Aesar), 5 µM auranofin (Enzo Life Sciences), or DMSO control (all in 5 µl) for 40 min in 5% CO2 and 37°C. The culture supernatant was collected from wells and centrifuged at 4°C and 500 g for 5 min. The solution was kept at 4°C and assayed immediately for the LDH content. The A490 reading is directly proportional to a known amount of LDH (standard curve) (CytoTox 96 Nonradioactive Cytotoxicity Assay, Promega). Egress induced by each drug is presented as a relative value after subtracting control levels of LDH induced by DMSO alone (the solvent for all drugs included in this assay) from the levels of LDH induced by the drugs. A t-test to determine the statistical difference between the relative egress triggered by auranofin and A23187 or auranofin and Zaprinast from three independent experiments was used.
On the technique in general: LDH leaks from cells whose membrane has failed.

Data set [4] relates to YFP+ RH parasites (T. gondii) invading HFF. As to the kind of experiment: Invasion assay. Format: cell-based, Toxoplasma gondii. How it is done:
We performed invasion assays with or without pre-treatment of T. gondii tachyzoites with auranofin, as modified from previously described assays ([28][–][31]). We used RH parasites expressing YFP ([32]). First, we determine the best concentration of auranofin to achieve stable host cell morphology and viability (HFF) while maximizing the effect of auranofin in T. gondii by titration of auranofin (doses ranging from 1 to 5 µM). The best auranofin dose fitting our criteria was 3 µM. Therefore, we performed a modified invasion assay using 2.5 × 10^6 parasites freshly lysed YFP+ RH parasites ([29]) that were filtered and centrifuged before each assay as follows: […]
After the 30-min invasion, all host cells were washed with PBS and fixed with 4% paraformaldehyde, blocked with 3% bovine serum albumin (BSA), and then incubated with anti-SAG-1 antibody (DG52) (David Sibley, Washington University in St. Louis) ([4]) for 1 hour, followed by incubation with goat anti-mouse IgG conjugated to Alexa-594 fluorophore (A19069, Thermo Fisher). For quantification, eight randomly selected fields (with a minimum of 300 parasites) were counted for each sample. […] The invasion rate was calculated by dividing the number of intracellular parasites by the total number of parasites counted.

Data set [5] has as its system Leishmania spp. (promastigotes and amastigotes). The arrangement: method as in PMID 24328400. The conditions noted are these: cited from earlier work.
Setting [6] is: Fig 7, unit inferred, read-out: IC50.
[7] abbreviates: HFF infected with RH T. gondii, read-out: IC50 (inhibition of parasite growth).

Regarding `O=C(O)CC([S-])C(=O)O.[Au+]` (stereo not drawn) [Aurothiomalate, aurothiomalate], the “inhibition of T. gondii growth in vitro” value with RH T. gondii is on record as “neither aurothioglucose nor aurothiomalate inhibited the growth; also recorded: did not display inhibitory activity”.

Consider `OC[C@H]1O[C@H]([S-])[C@H](O)[C@@H](O)[C@@H]1O.[Au+]` [Aurothioglucose, aurothioglucose], for which the “inhibition of T. gondii growth in vitro” value is given as “did not display inhibitory activity” with RH T. gondii and “neither aurothioglucose nor aurothiomalate inhibited the growth” with RH T. gondii (listed as aurothioglucose).

For `[Cl][Au][PH](Cc1ccccc1)(c1ccccc1)c1ccccc1` [Compound 6], the results for the concentration for half-maximal inhibition (IC50) with RH T. gondii (setting [6]) and in the data set with RH T. gondii (setting [7]) were 450 nM and 460 nM, respectively. Also, the “TD50 (cytotoxicity in host cells)” value in the data set on HFF host cells was 4.87 µM.

`CC(=O)OC[C@H]1O[C@@H]([S-])[C@H](OC(C)=O)[C@@H](OC(C)=O)[C@@H]1OC(C)=O.CCP(CC)CC.[Au+]` [Auranofin]: in the data set on RH T. gondii (setting [6]), the IC50 (usually the midpoint of a concentration-inhibition curve) stood at 560 nM. Also, the “TD50 (cytotoxicity in host cells)” value in the data set on HFF host cells is given as 5.14 µM. The “host cell monolayer integrity” value in data set [1] (HFF monolayer, 24 hours of auranofin treatment) is listed as “did not show changes in the monolayer integrity”. Further, the “effect on parasite replication (parasites per parasitophorous vacuole)” value in data set [1] (auranofin 2.5 µM for 24 hours after 1 hour invasion) was “did not inhibit parasite replication”. Moreover, the “phosphatidylserine externalization (PS) by Annexin V assay” value in data set [2] is on record as 29.16 ± 3.615 relative fluorescent units. The “parasite size (FSC-H)” value is reported as 152.7 ± 8.225 in data set [3] (24 hours, control 201.2 ± 4.064) and 123.5 ± 7.339 in data set [3] (48 hours, control 169.9 ± 66.25). Besides, the “relative egress level (LDH, normalized to DMSO)” value in the data set on T. gondii in HFF was 0.2768 ± 0.034; with T. gondii in HFF (listed as auranofin) it was 0.2768 ± 0.03435 and 0.3272 ± 0.009. Also, the “invasion rate (T. gondii that successfully invaded host cells)” value in data set [4] (parasites pre-treated with auranofin 3 µM for 30 min before invasion, control 35%) turned out to be 18%; in data set [4] (without pre-treatment, auranofin 3 µM during 30 min invasion, control 59%), 60%.

Take `CNc1ccc2oc(C[C@H]3O[C@@]4(CC[C@H]3C)O[C@H]([C@H](C)C(=O)c3ccc[nH]3)[C@H](C)C[C@H]4C)nc2c1C(=O)O` [A23187]: in the data set with T. gondii in HFF, the “relative egress level (LDH, normalized to DMSO)” value worked out at 0.4533 ± 0.01148.

Consider `CCCOc1ccccc1-c1nc2nn[nH]c2c(=O)[nH]1` [Zaprinast, zaprinast], for which the “relative egress level (LDH, normalized to DMSO)” value was 0.3272 ± 0.009 with T. gondii in HFF and 0.2768 ± 0.034 in the data set on T. gondii in HFF (listed as zaprinast).

Take `[Cl][Au].c1ccc(P(c2ccccc2)c2ccccc2)cc1` [Compound 31]: the IC50 in the data set on RH T. gondii (setting [7]) came to 1410 nM. Besides, the “TD50 (cytotoxicity in host cells)” value in the data set on HFF host cells amounted to 178 µM. For the same compound, the “toxicity to host cells compared with auranofin” value in data set [5] is “less toxic to host cells than auranofin and compounds 6, 10, and 39”. For the same compound, the “antiparasitic activity against Leishmania spp. compared with auranofin” value in data set [5] (extracellular and intracellular forms) is reported as “higher IC50 than auranofin”.

The record behind these values is PMC10845965, “Gold(I) ion and the phosphine ligand are necessary for the anti-Toxoplasma gondii activity of auranofin” (Microbiology Spectrum, 2024).
